From patent US9066914B2, “Prophylactic or ameliorating agent for pigmentation” (POLA CHEMICAL INDUSTRIES INC., priority 2010, dated 2015)

system: pigmented guinea pigs; experiment: Ultraviolet ray-induced pigmentation suppression test using guinea pigs; assay type: in vivo, guinea pig; conditions: 0.5% (w/v) in ethanol, 30 μL once a day for 6 weeks; L* on 43rd day minus L* before UV (300 mJ/cm^2); average ± standard deviation of 8 animals; solvent control −10.07 ± 0.78
Source text: The hair of the dorsal skin of each of eight pigmented guinea pigs was removed and shaved using an electrical hair clipper and shaver, and each of the sites was covered with a black cloth having a total of four (two on the top and bottom and two on the right and left) irradiation windows with a size of 2×2 cm, and then irradiated with ultraviolet rays of 300 mJ/cm^2 using FL20S•E30 lamp as a light source. The operation was repeated on days 1, 3, 5, and 8 after the start of the test to induce pigmentation on the four test sites. Compound 3 was dissolved in ethanol at a concentration of 0.5% (w/v) to prepare samples for application. Further, as a control, ethanol was used alone as a sample for application. On the 1st day of the test after the ultraviolet radiation, the application of samples was started. […] The skin brightness (L* value) of each of the test sites was measured by a colorimeter (CR-200, Konica Minolta Holdings, Inc.) before the ultraviolet radiation on the day of the start of application (day 1) and after 6 weeks (on the 43rd day of the test), and a ΔL* value was calculated by subtracting an L* value before the ultraviolet radiation from the L* value on 43rd day of the test. […] Therefore, it can be evaluated that, as the ΔL* value becomes larger (high numerical value), pigmentation is more inhibited.

Row | SMILES | ΔL* value
1 | Cc1ccc(C(=O)NC(CS(=O)(=O)O)C(=O)O)cc1 [L-Isomer of Compound 3, N-(p-toluoyl)cysteic acid] | −8.88 ± 0.54

same assay, conditions: concentration of 0.5%, applied to the skin

Row | SMILES | suppression of ultraviolet-induced pigmentation (in words)
2 | Cc1ccc(C(=O)NC(CS(=O)(=O)O)C(=O)O)cc1 [L-Isomer of Compound 3, N-(p-toluoyl)cysteic acid] | clearly suppresses the pigmentation

system: normal human melanocyte; experiment: UVB-induced cell activation inhibition test using normal human melanocyte; assay type: cell-based; conditions: formazan (MTT) production ratio, UVB-irradiated DMSO negative control = 100%; UVB 5 mJ/cm^2; 100 mM in DMSO diluted 1,000 times; conditioned medium of normal human keratinocyte; mean of 3 samples
Description: The inhibitory effect of the compounds on the activation of melanocyte by activating factor produced and released from normal human keratinocyte by the ultraviolet B (UVB) was evaluated by using the index of the cell proliferation of normal human melanocyte.
Normal human keratinocyte (Kurabo Industries, Ltd.) were seeded by Humedia-KG2 medium (Kurabo Industries, Ltd.) at a concentration of 10×10^4 cells/well in 24-well plate. Then, cells were cultured for 24 hours.
The compound was dissolved at a concentration of 100 mM in DMSO, which was diluted 1,000 times with Humedia-KG2 medium and used as a sample solution. As for the positive control group, tranexamic acid was dissolved at a concentration of 100 mM in DMSO, which was diluted 1,000 times with Humedia-KG2 medium as a positive control sample solution. As for the negative control group, DMSO was diluted 1,000 times with Humedia-KG2 medium as a negative control sample solution.
The medium of normal human keratinocyte was exchanged with Humedia-KG2 medium (sample solution) containing the compound at a predetermined concentration and cells were cultured for further 24 hours. After that, the medium was exchanged with PBS (phosphate buffered saline), and cells were irradiated with the ultraviolet B (UVB) at 5 mJ/cm^2 by using an ultraviolet lamp (FL20S•E-30/DMR, Toshiba Medical Supply Co., Ltd.) as a light source. After the ultraviolet radiation, PBS was exchanged with the sample solution. Cells were cultured for further 24 hours, and then the conditioned medium was collected. Normal human melanocyte cells were seeded at the concentration of 3×10^4 cells/well in 96-well plate by a medium of Medium 254 (Kurabo Industries, Ltd.). Cells were cultured for 24 hours. After that, the medium was exchanged with the conditioned medium collected from normal human keratinocyte, and cells were cultured for further 24 hours. After 24 hours, the medium was exchanged with Humedia-KG2 medium containing 0.5 mg/mL of 3-(4,5-dimethyl-2-thiazoyl)-2,5-diphenyl-2H-tetrazolium bromide (MTT), and cultured for 3 hour.
The formazan amount was measured by the absorbances at 570 nm and 690 nm of cell lysate lysed with 2-propanol using a microplate reader (Benchmark Plus, Bio-Rad) by subtracting the absorbance at 690 nm from the absorbance at 570 nm.
The inhibitory effect of each compounds on melanocyte proliferation was calculated as the formazan production ratio (%) when the absorbance of negative control group, which was added DMSO and UVB irradiated, was defined as 100%.
Therefore, the small production ratio of formazan means that the inhibitory effect of the compounds is strong against the activation of melanocyte by the melanocyte activating factor released form keratinocyte.

Row | SMILES | Melanocyte proliferation ratio Average (%)
3 | Cc1ccc(C(=O)NC(CCS(=O)(=O)O)C(=O)O)cc1 (racemic) [Compound 6, N-(p-toluoyl)homocysteic acid] | 71.3
4 | Cc1ccccc1C(=O)N[C@@H](CS(=O)(=O)O)C(=O)O [L-Isomer of Compound 1, N-(o-Toluoyl)-L-cysteic acid] | 73.7
5 | Cc1cccc(C(=O)N[C@@H](CS(=O)(=O)O)C(=O)O)c1 [L-Isomer of Compound 2, N-(m-toluoyl)cysteic acid] | 77.0
6 | Cc1ccc(C(=O)N[C@@H](CS(=O)(=O)O)C(=O)O)cc1 [L-Isomer of Compound 3, N-(p-toluoyl)cysteic acid] | 58.4
7 | COc1ccc(C(=O)N[C@@H](CS(=O)(=O)O)C(=O)O)cc1 [L-Isomer of Compound 4, N-(p-methoxybenzoyl)cysteic acid] | 65.6
8 | O=C(N[C@@H](CS(=O)(=O)O)C(=O)O)c1ccc(-c2ccccc2)cc1 [L-Isomer of Compound 5, N-(4-phenylbenzoyl)cysteic acid] | 79.0
9 | NC[C@H]1CC[C@H](C(=O)O)CC1 [Tranexamic acid, reference compound] | 80.9
